Experimental data taken from patent US20170000740A9, “COMBINATION THERAPEUTIC NANOPARTICLES” (UNIVERSITY OF GEORGIA RESEARCH FOUNDATION INC., priority 2013, published 2017).

Tested on: human prostate cancer PC-3 cells
Assay: Cytotoxic profile by MTT assay on human prostate cancer PC-3 cell line
Assay type: cell-based
Settings: incubation time=48 h

| SMILES | IC50 (Homo sapiens) [µM] | IC50 [µM] |
| --- | --- | --- |
| CC(=O)Oc1ccccc1C(=O)O [Aspirin] | > 100 |  |
| N.N.[Cl][Pt][Cl] [Cisplatin] |  | 14 |
